Key:
[1] = system: subcutaneously pentetrazol-injected model (scPTZ); experiment: Subcutaneously pentetrazol-injected model (scPTZ) test; assay type: in vivo, mice; details: pentetrazol 85 mg/kg s.c. after 1 hour; for scPTZ (positive number/tested number) / responders at 100 mg/kg: 100 mg/kg oral; for scPTZ (positive number/tested number) / responders at 50 mg/kg / responders at 100 mg/kg: Slc: ddY male mice, 3 per group, observed 30 minutes for clonic convulsion; for responders at 50 mg/kg / responders at 100 mg/kg: Mus musculus, po, 1 h, read-out: scPTZ (positive number/tested number) (converted); for responders at 50 mg/kg: 50 mg/kg oral; for anticonvulsant action in subcutaneously pentetrazol-injected model (scPTZ) test: mice, oral 50 or 100 mg/kg
Text: In order to evaluate the antiepileptic activity of each drug, maximum electroshock seizure (MES) model, subcutaneously pentetrazol-injected model (scPTZ), and amygdala kindling model in rats were used because they show a good clinical prediction. […] Test with Subcutaneously Pentetrazol-Injected Model (scPTZ) Similar to Test 1, Test 2 evaluates the anticonvulsant action of medicaments. However, unlike Test 1, animal model used herein represents the clinical phenotypes of generalized absence seizure and myoclonic seizure. Test compounds (50 or 100 mg/kg) were orally administered to Slc: ddY male mice (3 mice in each group, body weight 20-30 g). After an hour, pentetrazol (85 mg/kg) was subcutaneously administered. […] To the control mice, 0.5% tragacanth solution or 0.5% methylcellulose solution was administered.

[2] = system: maximum electroshock seizure (MES) model; experiment: Maximum electroshock seizure (MES) model test; assay type: in vivo, mice; details: for responders at 100 mg/kg / responders at 50 mg/kg: Mus musculus, po, 1 h, read-out: MES (positive number/tested number) (converted); for responders at 50 mg/kg: 50 mg/kg oral; for anticonvulsant action in maximum electroshock seizure (MES) model test: mice, oral 50 or 100 mg/kg, 1 hour after administration
Text: In order to evaluate the antiepileptic activity of each drug, maximum electroshock seizure (MES) model, subcutaneously pentetrazol-injected model (scPTZ), and amygdala kindling model in rats were used because they show a good clinical prediction.
Test 1: Test with Maximum Electroshock Seizure (MES) Model
Test 1 evaluates the anticonvulsant action of medicaments. Animal model used herein represents the clinical phenotypes of generalized tonic seizure and secondarily generalized tonic-clonic seizure. Test compounds (50 or 100 mg/kg) were orally administered to Slc: ddY male mice (3 mice in each group, body weight 20-30 g). After an hour of administration, their corneas were electrically stimulated (60 Hz, 25 mA, 0.2 second) to induce tonic convulsion (tonic extensor in their hind limbs). […] To the control mice, 0.5% tragacanth solution or 0.5% methylcellulose solution was administered.

[3] = 100 mg/kg oral, Slc: ddY male mice, 3 per group, electrical stimulation 1 hour after administration, inhibition of hind limb extension
[4] = Slc: ddY male mice, 3 per group, electrical stimulation 1 hour after administration, inhibition of hind limb extension

Compound	scPTZ (positive number/tested number) [1]	responders at 100 mg/kg [2, 3] [%]	responders at 50 mg/kg [1] [%]	responders at 100 mg/kg [1] [%]	responders at 50 mg/kg [2, 4] [%]	anticonvulsant action in subcutaneously pentetrazol-injected model (scPTZ) test [1]	anticonvulsant action in maximum electroshock seizure (MES) model test [2]	MES (positive number/tested number) [2, 3]
CS(=O)(=O)c1ccc(-c2ccccc2CC(N)=O)cc1 [Example 77]	2/3	0	–	–	–	–	–	–
NC(=O)Cc1ccccc1-c1cccc(OC(F)(F)F)c1 [Example 79, 2-[3′-(trifluoromethoxy)biphenyl-2-yl]acetamide]	–	100	33.3	100	33.3	–	–	–
Cc1cc(Cl)cc(-c2ccccc2CC(N)=O)c1F [Example 81]	–	33.3	–	0	–	–	–	–
NC(=O)Cc1ccccc1-c1cc(F)ccc1C(F)(F)F [Example 82]	–	33.3	–	100	–	–	–	–
NC(=O)Cc1ccccc1-c1cc(C(F)(F)F)ccc1F [Example 83, 2-[2′-fluoro-5′-(trifluoromethyl)biphenyl-2-yl]acetamide]	–	66.7	33.3	66.7	0	–	–	–
NC(=O)Cc1ccccc1-c1ccc(C(F)(F)F)cc1Cl [Example 84, 2-[2′-chloro-4′-(trifluoromethyl)biphenyl-2-yl]acetamide]	–	66.7	33.3	66.7	0	–	–	–
NC(=O)Cc1ccccc1-c1cccc(Cl)c1F [Example 85]	–	100	–	33.3	–	–	–	–
NC(=O)Cc1ccccc1-c1cc(Cl)ccc1F [Example 87, 2-(5′-chloro-2′-fluorobiphenyl-2-yl)acetamide]	–	100	0	66.7	33.3	–	–	–
NC(=O)Cc1ccccc1-c1ccc(F)c(F)c1F [Example 89, 2-(2′,3′,4′-trifluorobiphenyl-2-yl)acetamide]	–	100	33.3	66.7	0	–	–	–
NC(=O)Cc1ccccc1-c1cc(F)c(F)c(F)c1 [Example 90, 2-(3′,4′,5′-trifluorobiphenyl-2-yl)acetamide]	–	66.7	66.7	66.7	66.7	anticonvulsant action was observed	anticonvulsant action was observed	–
CS(=O)(=O)c1ccc(-c2ccccc2CC(N)=O)cc1 [Example 92]	1/3	–	–	–	–	–	–	0/3
NC(=O)Cc1ccccc1-c1cc(Cl)ccc1Cl [Example 95, 2-(2′,5′-dichlorobiphenyl-2-yl)acetamide]	–	66.7	0	100	33.3	–	–	–
NC(=O)Cc1ccccc1-c1cc(C(F)(F)F)ccc1Cl [Example 96]	–	33.3	–	66.7	–	–	–	–
CNC(=O)Cc1ccccc1-c1ccc(C(F)(F)F)cc1F [Example 97]	–	66.7	–	33.3	33.3	–	–	–
CNC(=O)Cc1ccccc1-c1cccc(C(F)(F)F)c1F [Example 98]	–	66.7	–	0	0	–	–	–
CNC(=O)Cc1ccccc1-c1cccc(OC(F)(F)F)c1 [Example 99, N-methyl-2-[3′-(trifluoromethoxy)biphenyl-2-yl]acetamide]	–	100	–	33.3	66.7	–	–	–
CNC(=O)Cc1ccccc1-c1cccc(SC)c1 [Example 100]	–	0	–	100	–	–	–	–
CNC(=O)Cc1ccccc1-c1cc(F)ccc1C(F)(F)F [Example 101]	–	100	–	0	–	–	–	–
CNC(=O)Cc1ccccc1-c1cc(F)cc(C(F)(F)F)c1 [Example 102]	–	0	–	66.7	–	–	–	–

Compound	scPTZ (positive number/tested number) [1]	responders at 100 mg/kg [2, 3] [%]	responders at 50 mg/kg [1] [%]	responders at 100 mg/kg [1] [%]	responders at 50 mg/kg [2, 4] [%]	anticonvulsant action in subcutaneously pentetrazol-injected model (scPTZ) test [1]	anticonvulsant action in maximum electroshock seizure (MES) model test [2]	MES (positive number/tested number) [2, 3]
CNC(=O)Cc1ccccc1-c1ccc(OC(F)(F)F)cc1 [Example 103]	–	100	–	33.3	–	–	–	–
CNC(=O)Cc1ccccc1-c1ccc(F)cc1C(F)(F)F [Example 104]	–	100	–	0	–	–	–	–
CNC(=O)Cc1ccccc1-c1ccc(Cl)cc1C(F)(F)F [Example 105]	–	0	–	66.7	–	–	–	–
N#Cc1ccc(-c2ccccc2CC(N)=O)c(F)c1 [Example 106]	–	0	–	66.7	–	–	–	–
N#Cc1ccc(Cl)cc1-c1ccccc1CC(N)=O [Example 107]	–	0	–	100	–	–	–	–
N#Cc1c(-c2ccccc2CC(N)=O)cccc1C(F)(F)F [Example 108]	–	0	–	66.7	–	–	–	–
NC(=O)Cc1cc(Cl)ccc1-c1ccc(Cl)cc1 [Example 109, 2-(4,4′-dichlorobiphenyl-2-yl)acetamide]	–	100	66.7	100	100	anticonvulsant action was observed	anticonvulsant action was observed	–
NC(=O)Cc1cc(F)c(F)cc1-c1ccccc1 [Example 110]	–	66.7	–	33.3	0	–	–	–
Cc1ccc(-c2ccccc2)c(CC(N)=O)c1 [Example 111]	–	0	33.3	66.7	–	–	–	–
NC(=O)Cc1ccc([N+](=O)[O-])cc1-c1ccccc1 [Example 112]	–	33.3	33.3	66.7	–	–	–	–
NC(=O)Cc1ccc([N+](=O)[O-])cc1-c1ccccc1F [Example 113, 2-(2′-fluoro-5-nitrobiphenyl-2-yl)acetamide]	–	100	–	33.3	66.7	–	–	–
NC(=O)Cc1cc(F)ccc1-c1ccc(F)cc1 [Example 114, 2-(4,4′-difluorobiphenyl-2-yl)acetamide]	–	100	–	33.3	100	–	–	–
CNC(=O)Cc1cc(F)ccc1-c1ccc(F)cc1 [Example 115, 2-(4,4′-difluorobiphenyl-2-yl)-N-methylacetamide]	–	100	–	0	100	–	–	–
NC(=O)Cc1cc(C(F)(F)F)ccc1-c1ccccc1 [Example 116]	–	0	33.3	66.7	–	–	–	–
CNC(=O)Cc1cc(C(F)(F)F)ccc1-c1ccccc1 [Example 117]	–	0	33.3	66.7	–	–	–	–
NC(=O)Cc1c(F)cccc1-c1ccccc1 [Example 118, 2-(3-fluorobiphenyl-2-yl)acetamide]	–	100	–	33.3	100	–	–	–
CNC(=O)Cc1c(F)cccc1-c1ccccc1 [Example 119, 2-(3-fluorobiphenyl-2-yl)-N-methylacetamide]	–	100	–	0	100	–	–	–
NC(=O)Cc1ccc(F)cc1-c1cccc(F)c1 [Example 120]	–	100	–	33.3	0	–	–	–

Source: patent publication US20120142771A1, “BIPHENYLACETAMIDE DERIVATIVE” (Dainippon Sumitomo Pharma Co., Ltd., priority 2008, published 2012)
